Results from US10456379B2, “Imidazole-based antimicrobial agents” (priority 2014, dated 2019).
In brackets after ≈: the same amount, converted by molar mass. Where two headings read alike, the source gives them in different places.

How the values were obtained:
[1] = test system: Enterococcus faecalis (ATCC29212); experiment: Broth microdilution MIC assay, Enterococcus faecalis; type: cell-based; details: read-out: Antibacterial activity, EFs (Enterococcus faecalis), MIC class
[2] = test system: Staphylococcus aureus MRSA (COL); experiment: Broth microdilution MIC assay, Staphylococcus aureus MRSA (COL); type: cell-based; details: for Antibacterial activity Staphylococcus aureus (MRSA): MIC class score, MIC100, broth microdilution, COL strain; for MIC: Staphylococcus aureus, MRSA, read-out: Antibacterial activity, MRSA (Staphylococcus aureus MRSA), MIC class
[3] = test system: Staphylococcus aureus MSSA (Newman); experiment: Broth microdilution MIC assay, Staphylococcus aureus MSSA (Newman); type: cell-based; details: for MIC: Staphylococcus aureus; for Antibacterial activity Staphylococcus aureus (MSSA): MIC class score, MIC100, broth microdilution, Newman strain
[4] = test system: Streptococcus pneumoniae (Chester, ATCC49619); experiment: Broth microdilution MIC assay, Streptococcus pneumoniae; type: cell-based; details: for Antibacterial activity Streptococcus pneumoniae: MIC class score, MIC100, broth microdilution; for MIC: Streptococcus pneumoniae, ATCC49619, read-out: Antibacterial activity, SP (Streptococcus pneumoniae), MIC class
[5] = test system: vancomycin-resistant Enterococcus faecium (ATCC51559); experiment: microbe, parasite or virus in culture; type: cell-based
[6] = test system: vancomycin-resistant Enterococcus faecalis (ATCC51575); experiment: microbe, parasite or virus in culture; type: cell-based; details: ATCC51575; vancomycin-resistant Enterococcus faecalis; read-out: Antibacterial activity, VREFs (vancomycin-resistant EFs), MIC class
[7] = test system: daptomycin-resistant Staphylococcus aureus (from MRSA COL); experiment: Broth microdilution MIC assay, daptomycin-resistant MRSA; type: cell-based; details: 24 h, read-out: Antibacterial activity, MRSA strains with additional resistance, D (daptomycin), MIC class
[8] = test system: Mycobacterium smegmatis (mc(2)155); experiment: Broth microdilution MIC assay, Mycobacterium smegmatis
[9] = read-out: Antibacterial activity Staphylococcus aureus (MSSA)
[10] = read-out: Antibacterial activity, MSSA (Staphylococcus aureus MSSA), MIC class
[11] = ATCC51559, vancomycin-resistant Enterococcus faecium, read-out: Antibacterial activity, VREFm (vancomycin-resistant EFm), MIC class

Question: What does the source list for `Cc1nc(-c2ccc(-c3ccc(Cl)c(OC(F)(F)F)c3)o2)[nH]c1-c1ccc(F)cc1` [compound 43]?
Answer: MIC [1]: 20 to 50 µg/mL (≈ 45.8 to 114 µM); Antibacterial activity Staphylococcus aureus (MRSA) [2]: 2 (MIC100 of 11-20 μg/ml)

Question: How did the MIC [3, 9] turn out when `FC(F)(F)c1ccccc1-c1ccc(-c2ncc(-c3ccccc3)[nH]2)o1` [compound 75] was run?
Answer: The MIC was 11 to 20 µg/mL (≈ 31 to 56.4 µM).

Question: What about the “Antibacterial activity Streptococcus pneumoniae” value [4] of the same compound?
Answer: The value was 3 (MIC100 of 2-5 μg/ml).

Question: Which results are given for `Cc1[nH]c(-c2ccc(-c3ccc(OC(F)(F)F)c(Cl)c3)o2)nc1-c1ccc(Cl)cc1` [compound 50]?
Answer: MIC [2]: 11 to 20 µg/mL (≈ 24.3 to 44.1 µM); Antibacterial activity Streptococcus pneumoniae [4]: 3 (MIC100 of 2-5 μg/ml); MIC [4]: 2 to 5 µg/mL (≈ 4.41 to 11 µM)

Question: Which MIC [3, 9] does the source give for `Cc1nc(-c2ccc(-c3ccc(O)cc3)o2)[nH]c1-c1ccccc1` [compound 150] here?
Answer: Its MIC is 11 to 20 µg/mL (≈ 34.8 to 63.2 µM).

Question: What about the “Antibacterial activity Streptococcus pneumoniae” value [4] of the same compound?
Answer: Its value is 2 (MIC100 of 6-10 μg/ml).

Question: What does the source list for `Fc1ccc(-c2ccc(-c3nc4ccccc4[nH]3)o2)cc1` [compound 121]?
Answer: Antibacterial activity Staphylococcus aureus (MRSA) [2]: in- active; Antibacterial activity Streptococcus pneumoniae [4]: in- active

Question: What does the source list for `Cc1[nH]c(-c2ccc(-c3ccc(C(F)(F)F)cc3)s2)nc1-c1ccccc1` [compound 46]?
Answer: Antibacterial activity Staphylococcus aureus (MSSA) [3]: 2 (MIC100 of 11-20 μg/ml); MIC [3, 10]: 11 to 20 µg/mL (≈ 28.6 to 52 µM); Antibacterial activity Streptococcus pneumoniae [4]: 3 (MIC100 of 2-5 μg/ml)

Question: For `Cc1[nH]c(-c2ccc(-c3ccc(Cl)c(C(F)(F)F)c3)o2)nc1-c1ccccc1` [compound 39], which MIC [1] is on record?
Answer: The MIC was 20 to 50 µg/mL (≈ 49.7 to 124 µM).

Question: And the MIC [5, 11]?
Answer: The MIC was 20 to 50 µg/mL (≈ 49.7 to 124 µM).

Question: What about the MIC [6] of the same compound?
Answer: Its MIC is 20 to 50 µg/mL (≈ 49.7 to 124 µM).

Question: What about the MIC [4] of the same compound?
Answer: The MIC was < 1 µg/mL.

Question: For `Cc1nc(-c2ccc(-c3ccccc3O)o2)[nH]c1-c1ccccc1` [compound 149], which MIC [3, 9] is on record?
Answer: The MIC was 11 to 20 µg/mL (≈ 34.8 to 63.2 µM).

Question: How did the “Antibacterial activity Staphylococcus aureus (MSSA)” value [3] turn out when `FC(F)(F)c1ccccc1-c1ccc(-c2nc(Cl)c(-c3ccccc3)[nH]2)o1` [compound 65] was run?
Answer: Its value is 2 (MIC100 of 11-20 μg/ml).

Question: What about the MIC [3, 10] of the same compound?
Answer: Its MIC is 11 to 20 µg/mL (≈ 28.3 to 51.4 µM).

Question: What about the MIC [4] of the same compound?
Answer: The MIC was < 1 µg/mL.

Question: What does the source list for `Cc1[nH]c(-c2ccc(-c3cccc(Cl)c3Cl)o2)nc1-c1ccccc1` [compound 2]?
Answer: MIC [7]: 3 to 10 µg/mL (≈ 8.12 to 27.1 µM); MIC [6]: 20 to 50 µg/mL (≈ 54.2 to 135 µM); Antibacterial activity Streptococcus pneumoniae [4]: 3 (MIC100 of 2-5 μg/ml)

Question: Which “Antibacterial activity Staphylococcus aureus (MRSA)” value [2] does the source give for `Cc1nc(-c2ccc(-c3ccccc3OC(F)(F)F)o2)[nH]c1-c1ccc(Br)cc1` [compound 29] here?
Answer: Its value is 2 (MIC100 of 11-20 μg/ml).

Question: And the “Antibacterial activity Streptococcus pneumoniae” value [4]?
Answer: Its value is 3 (MIC100 of 2-5 μg/ml).

Question: And the MIC [4]?
Answer: The MIC was 2 to 5 µg/mL (≈ 4.32 to 10.8 µM).

Question: With `Cc1[nH]c(-c2ccc(-c3cccc(C(F)(F)F)c3)o2)nc1-c1ccc(F)cc1` [compound 38] as the compound, how does the MIC [1] read?
Answer: The MIC was 20 to 50 µg/mL (≈ 51.8 to 129 µM).

Question: What about the MIC ([5]; Enterococcus faecium, ATCC51559, read-out: Antibacterial activity, VREFm (vancomycin-resistant EFm), MIC class) of the same compound?
Answer: Its MIC is 20 to 50 µg/mL (≈ 51.8 to 129 µM).

Question: And the “Antibacterial activity Streptococcus pneumoniae” value [4]?
Answer: Its value is 3 (MIC100 of 2-5 μg/ml).

Question: What about the MIC [4] of the same compound?
Answer: The MIC was 2 to 5 µg/mL (≈ 5.18 to 12.9 µM).

Question: With `Cc1nc(-c2ccc(-c3ccc(Cl)cc3Cl)o2)[nH]c1-c1ccc(F)cc1` [compound 16] as the compound, how does the MIC [1] read?
Answer: The MIC was 20 to 50 µg/mL (≈ 51.6 to 129 µM).

Question: And the MIC [5, 11]?
Answer: The MIC was 20 to 50 µg/mL (≈ 51.6 to 129 µM).

Question: What about the MIC [6] of the same compound?
Answer: The MIC was 20 to 50 µg/mL (≈ 51.6 to 129 µM).

Question: And the MIC [4]?
Answer: The MIC was 2 to 5 µg/mL (≈ 5.16 to 12.9 µM).

Question: For `Cc1nc(-c2ccc(-c3ccc4cc(O)ccc4c3)o2)[nH]c1-c1ccccc1` [compound 154], which MIC [3, 9] is on record?
Answer: The MIC was 11 to 20 µg/mL (≈ 30 to 54.6 µM).

Question: What about the “Antibacterial activity Streptococcus pneumoniae” value [4] of the same compound?
Answer: Its value is 2 (MIC100 of 6-10 μg/ml).

Question: Which results are given for `Cc1nc(-c2ccc(-c3ccccc3C(F)(F)F)o2)[nH]c1-c1cccc(Cl)c1` [compound 22]?
Answer: Antibacterial activity Staphylococcus aureus (MSSA) [3]: 2 (MIC100 of 11-20 μg/ml); MIC [3, 10]: 11 to 20 µg/mL (≈ 27.3 to 49.7 µM); Antibacterial activity Streptococcus pneumoniae [4]: 3 (MIC100 of 2-5 μg/ml); MIC [4]: 2 to 5 µg/mL (≈ 4.97 to 12.4 µM)

Question: What does the source list for `Cc1nc(-c2ccc(-c3cccc(Cl)c3)o2)[nH]c1-c1ccccc1` [compound 4]?
Answer: MIC [2]: 11 to 20 µg/mL (≈ 32.9 to 59.7 µM); MIC [4]: < 1 µg/mL

Question: Which “Antibacterial activity, MS (Mycobacterium smegmatis), MIC class” value [8] does the source give for `Cc1[nH]c(-c2ccc(-c3ccccc3F)s2)nc1-c1ccccc1` [compound 15] here?
Answer: The value was 2 (MIC100 of 11-20 μg/ml).

Question: Which “Antibacterial activity Staphylococcus aureus (MSSA)” value [3] does the source give for `Cc1nc(-c2ccc(-c3ccccc3F)o2)[nH]c1-c1ccc(O)cc1` [compound 77] here?
Answer: The value was 3 (MIC100 of 3-10 μg/ml).

Question: What about the “Antibacterial activity Streptococcus pneumoniae” value [4] of the same compound?
Answer: Its value is 3 (MIC100 of 2-5 μg/ml).

Question: With `Cc1nc(-c2ccc(-c3ccc(O)cc3F)o2)[nH]c1-c1ccc(O)cc1` [compound 120] as the compound, how does the “Antibacterial activity Staphylococcus aureus (MSSA)” value [3] read?
Answer: The value was 2 (MIC100 of 11-20 μg/ml).

Question: `Cc1nc(-c2ccc(-c3cccc(O)c3)o2)[nH]c1-c1ccccc1` [compound 145] was tested. Which MIC [3, 9] did it give?
Answer: The MIC was 11 to 20 µg/mL (≈ 34.8 to 63.2 µM).

Question: What about the “Antibacterial activity Streptococcus pneumoniae” value [4] of the same compound?
Answer: Its value is 2 (MIC100 of 6-10 μg/ml).
